Results from US20090325975A1, “Use of compounds binding to the sigma receptor for the treatment of diabetes-associated pain” (priority 2005, published 2009).

Legend:
sigma receptor = conditions: result in words; cited from earlier work
[1] = test system: mechanical allodynia in STZ-induced mice; experiment: von-Frey test, mechanical allodynia in STZ-induced diabetic mice; type: in vivo; conditions: paw withdrawal response to von-Frey filaments
Description: The pancreatic β-cell cytotoxic agent STZ is widely used to induce diabetes in rodents. The glucosamine-nitrosourea compound STZ is taken up into the insulin-producing β-cells of the islets of Langerhan's via the GLUT-2 glucose transporter. The cytotoxic effect of STZ is mediated through a decrease in NAD levels, and the formation of intracellular free radicals leading to various toxic effects, including DNA-strand breaks (Schnedl et al., 1994). […] STZ-induced diabetic rodents show common features of human diabetes that include damage to the eye, kidney, blood vessels, and nervous system. Diabetic neuropathic pain occurs mainly due to the damage in the nervous system (Sima and Sugimoto, 1999).
Method: In the present study, diabetes is induced in mice by a single i.v. injection of STZ (200 mg/kg) as reported previously (Kamei et al., 1991; Rashid and Ueda, 2002). […] The plasma glucose level in the mice is measured in blood samples obtained from tail vein. […]
Thermal hyperalgesia and mechanical allodynia is measured at different time points (1-21 days) after STZ injection. Mechanical allodynia is measured using von-Frey filaments, a well-established method known by those skilled in the art, where the paw withdrawal response is measured. Similarly, thermal hyperalgesia is measured as the latency to paw withdrawal evoked by exposing the right hind paw to a thermal stimulus. […]

sigma-1 = sigma-1 (Homo sapiens, UniProt Q99720); conditions: cited from earlier work
sigma-2 = sigma-2 (Homo sapiens, UniProt Q5BJF2); conditions: cited from earlier work
sigma-2, sequence (Q5BJF2 whole entry): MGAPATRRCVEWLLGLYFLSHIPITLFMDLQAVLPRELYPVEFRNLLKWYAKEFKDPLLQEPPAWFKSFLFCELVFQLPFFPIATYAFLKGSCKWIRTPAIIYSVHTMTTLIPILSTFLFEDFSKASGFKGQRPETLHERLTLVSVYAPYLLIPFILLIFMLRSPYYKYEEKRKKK

sigma-1, sequence (Q99720 whole entry): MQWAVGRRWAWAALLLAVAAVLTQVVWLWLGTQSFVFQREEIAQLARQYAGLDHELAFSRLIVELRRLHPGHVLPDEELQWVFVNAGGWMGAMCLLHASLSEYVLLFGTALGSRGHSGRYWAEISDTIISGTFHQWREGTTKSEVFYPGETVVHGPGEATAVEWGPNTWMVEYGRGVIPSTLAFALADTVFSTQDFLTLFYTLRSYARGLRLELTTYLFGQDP

| SMILES | affinity to the sigma receptor (sigma receptor) | effect on mechanical allodynia in the von-Frey test [1] | IC50 (sigma-1) [nM] | IC50 (sigma-2) [nM] |
| --- | --- | --- | --- | --- |
| CC(C)=CCN1CCC2(C)c3cc(O)ccc3CC1C2C (centres unmarked) [pentazocine] | very high affinity | – | – | – |
| CN1CCN(CCc2ccc(Cl)c(Cl)c2)CC1 [BD-1063, 1-(3,4-dichlorophenethyl)-4-methylpiperazine] | high affinity | significantly antagonizes mechanical allodynia | 30 | 800 |
